US8541442B2, “Indole derivatives as anticancer agents” (Janssen Pharmaceutica N.V., priority 2009, dated 2013)

system: Male NMRI mice; experiment: Ro-4-1284 antagonism in mice; assay type: in vivo; conditions: 40 mg/kg
Experimental: The test is a modification of a procedure described by Colpaert et al. (1975).^3 Male NMRI mice (22±3 g) were housed in macrolon observation cages (L×W×H: 11×12×17 cm; n=3 per cage). At the start of the experiments immediately before test compound administration, the initial body temperature of the mice was measured with a precision of 0.1° C. by inserting the thermo-sensitive probe (1.0 mm diameter) of an electric thermometer (Comark) to a constant depth of 3 cm into the esophagus until a stable reading was obtained. The right eye pupil diameter was measured with a graduated microscope and expressed in 1/24 mm units. Fifteen min after test compound administration, the mice were challenged with Ro-4-1284 (10 mg/kg, s.c.). Ro-4-1284 is a reserpine-like vesicular monoamine transport (VMAT-2) inhibitor, which rapidly depletes secretory vesicles.^3,4 Fifteen, 30 and 60 min after challenge, the mice were scored for palpebral opening (0, 1, 2, 3, 4, 5) and locomotor activity (−1, 0, 1, 2, 3). At the 60-min interval, immediately after the scoring of overt behavior, the right eye pupil diameter and the esophageal temperature were measured again. Abnormal phenomena such as intensive sniffing, chewing, rearing, hyperemia, piloerection, salivation, tremors, convulsions and death were noted (the latter phenomena were also noted when occurring before Ro-4-1284 administration). Criteria for drug-induced effects: reversal of ptosis: palpebral opening score >1 at 15, 30 or 60 min (2.7, 0.5 and 0% false positive controls, respectively; n>350); induction of prostration: score −1 for locomotion at 15, 30 or 60 min (never observed in controls); reversal of hypomotility: score >0 for locomotion at 15, 30 and 60 min (2.2, 0.8 and 0% false positive controls, respectively); reversal of miosis: pupil diameter >5 units at 60 min (0.8% false positives); potentiation of hypothermia: temperature decrease (over the 1-h time interval)>9.0° C. (1.4% false positives); reversal of hypothermia: temperature decrease <3.0° C. (1.8% false positives).
According to the standard procedure, R0-4-1284 is injected 15 min following subcutaneous or oral administration and observations start 15 min later. Doses are initially given to 3 animals. When at least 2 out of the 3 animals show activity for at least one of the observations, the compound is considered active.

Compound | activity on reversal of hypomotility | activity on reversal of miosis | activity on reversal of ptosis
Cc1cc(Nc2ccnc3c2CCC3=O)ccc1NCCc1c[nH]c2c(C(C)O)cccc12 (stereo not drawn) [Compound 4] | did not show activity | did not show activity | did not show activity

same assay, conditions: 80 mg/kg oral administration, 3 animals

Compound | activity on reversal of hypomotility | activity on reversal of miosis | activity on reversal of ptosis
COC1CCc2c(Nc3ccc(NCCc4c[nH]c5c(C(C)(C)O)cccc45)cc3)ccnc21 (single isomer, unassigned) [Compound 24] | did not show activity | did not show activity | did not show activity
COC1CCc2c(Nc3ccc(NCCc4c[nH]c5c(C(C)(C)O)cccc45)cc3)ccnc21 (single isomer, unassigned) [Compound 25] | did not show activity | did not show activity | did not show activity
Cc1cc(Nc2ccnc3c2CCC3(C)O)ccc1NCCc1c[nH]c2c(C(C)(C)O)cccc12 (single isomer, unassigned) [Compound 26] | did not show activity | did not show activity | did not show activity
Cc1cc(Nc2ccnc3c2CCC3(C)O)ccc1NCCc1c[nH]c2c(C(C)(C)O)cccc12 (single isomer, unassigned) [Compound 27] | did not show activity | did not show activity | did not show activity
COC1CCc2c(Nc3ccc(NCCc4c[nH]c5c(C(C)(C)O)cccc45)c(C)c3)ccnc21 (single isomer, unassigned) [Compound 28] | did not show activity | did not show activity | did not show activity
COC1CCc2c(Nc3ccc(NCCc4c[nH]c5c(C(C)(C)O)cccc45)c(C)c3)ccnc21 (single isomer, unassigned) [Compound 29] | did not show activity | did not show activity | did not show activity
CC(C)(O)c1cccc2c(CCNc3ccc(Nc4ccnc5c4CCC5(C)O)cc3)c[nH]c12 (single isomer, unassigned) [Compound 30] | did not show activity | did not show activity | did not show activity
CC(C)(O)c1cccc2c(CCNc3ccc(Nc4ccnc5c4CCC5(C)O)cc3)c[nH]c12 (single isomer, unassigned) [Compound 31] | did not show activity | did not show activity | did not show activity
Cc1cc(Nc2ccnc3c2CCC3(C)O)ccc1NCCc1c[nH]c2c(C(C)(C)O)cccc12 (stereo not drawn) [Compound 1] | did not show activity | did not show activity | did not show activity
C=C(C)c1cccc2c(CCNc3ccc(Nc4ccnc5c4CCC5OC)cc3)c[nH]c12 (stereo not drawn) [Compound 7] | did not show activity | did not show activity | did not show activity
Cc1cc(Nc2ccnc3c2CCC3O)ccc1NCCc1c[nH]c2c(C(C)(C)O)cccc12 (stereo not drawn) [Compound 18] | did not show activity | did not show activity | did not show activity
Cc1cc(Nc2ccnc3c2CCC3O)ccc1NCCc1c[nH]c2c(C(C)(C)O)cccc12 (stereo not drawn) [Compound 20] | did not show activity | did not show activity | did not show activity
